Results on one molecule are retold here after patent US20240252486A1, “ALGOSTATIC AGENTS FOR PREVENTING TRANSITION FROM ACUTE TO CHRONIC PAIN” (The Regents of the University of California, priority 2021, published 2024).

SMILES strings stand for the structures.

The test system of series [1] is formalin-injected mice. Briefly: Formalin test: acute nocifensive behavior. The note with it: pretreatment; ARN16186 10 mg-kg^−1 IP, ARN19702 30 mg-kg^−1 IP; wild-type mice, 1% formalin.
A short description of series [2]: Body-weight gain after formalin. Format: in vivo, mouse. The conditions noted are these: ARN19702 30 mg-kg^−1 IP once daily for 3 days starting 24 h after formalin; PFD14.
For series [3], the system named is formalin-injected mice. Put plainly: Formalin-induced chronic pain-like state (CPLS): persistent hypersensitivity to heat and mechanical stimuli. Format: in vivo, mouse.
In series [4] the test system is spinal-cord transcription. Put plainly: RNA sequencing and metabolomic analysis of L4-L6 spinal cord. The conditions noted are these: systemic ARN19702 administration on PFD2-3. It counts as in vivo, mouse. As for the experimental part:
RNA sequencing and bioinformatics analysis: We extracted total RNA with the RNeasy Mini Kit (Qiagen). Samples with RNA integrity number ≥8.5 were kept for library construction. cDNA synthesis, amplification, library construction, and sequencing were performed at Novogene (Bejing, China) using the Illumina NovaSeq platform with paired-end 150 bp (PE 150) sequencing strategy. Downstream analysis was performed using a combination of programs including STAR, HTseq, Cufflink and Novogene's wrapped scripts. Alignments were parsed using the STAR program and differential expressions were determined using DESeq2/edgeR. Gene Ontology (GO) and Kyoto Encyclopedia of Genes and Genomes (KEGG) enrichment were implemented using the ClusterProfiler.
Metabolomic analysis: Metabolomics analyses were performed at the West Coast Metabolomics Center of the University of California Davis, as described^55. Briefly, frozen lumbar spinal cord (L4-L6) fragments (˜5 mg) were homogenized in Eppendorf tubes (2 ml) for 2 min using metal spheres ([…] diameter) in a MM300 mill (Retsch, Germany). A mixture of isopropanol/acetonitrile/water (3/3/2, vol) was added to the grounded tissue (1 ml per 20 mg), stirred for 10 s and shaken at 4° C. for 5 min. […]

In series [5] the test system is formalin-injected mice. Put plainly: Ex vivo diffusion tensor imaging of spinal cord and forebrain. Format: in vivo, mouse. The note with it: ARN19702 30 mg-kg^−1 IP once daily for 3 days starting 24 h after formalin; PFD14. As for the experimental part:
Magnetic Resonance Imaging (MRI) acquisition: Mice were anesthetized, flushed intracardially with ice-cold PBS and then with 4% PAF in PBS (pH 7.4). Brains and spinal cords were removed within their osseous structures and post-fixed overnight in 4% PAF, followed by three 5-min washes with PBS the next day, and stored in PBS (pH 7.4) containing sodium azide (0.02%, weight) at 4 °C. Ex vivo diffusion tensor imaging (DTI) and T2 weighted imaging ([…]) studies were performed using a 9.4 T Bruker Avance imager (Bruker Biospin, Billerica, USA). Data were acquired with the following parameters: 1.5 cm field of view, 0.5 mm slice thickness, and a 128×128 acquisition matrix and zero filled to 256×256. DTI parameters were as follows: repetition time (TR)/echo time (TE)=8000 ms/35.66 ms, 30 isolinear directions, B=[…], and 5 B0 images acquired prior to weighted images. […] parameters were TR/TE=4000/10 ms with 10 equally spaced echoes. Brain: We used 3D automatic registration for unbiased region parcellation to analyze DTI metrics in brain structures. Scans underwent eddy current correction and brain was digitally removed from surrounding skull and muscles using 3D Pulse-Coupled Neural Networks (PCNN3D v1.2) in MATLAB R2017a (MathWorks). […] The resultant maps were then analyzed in DSI studio (http://dsi-studio.labsolver.org). […]

The subject of the next series is naïve animals. Briefly: Baseline nociceptive thresholds in naïve animals. Format: in vivo, mouse. The conditions noted are these: ARN19702 30 mg-kg^−1 IP, ARN16186 10 mg-kg^−1 IP.
The test system of series [6] is formalin-injected mice. Put plainly: 24-h novel object recognition test (long-term memory) after formalin. It counts as in vivo, mouse. The conditions noted are these: ARN19702 30 mg-kg^−1 IP once daily for 3 days starting 24 h after formalin; PFD14. The procedure:
The test was conducted over 3 days.
The test was conducted over 3 days. […] The discriminatory index was calculated as follows: […]

The conditions of series [7]: as effectively as does ARN077; cited from earlier work.
Series [8] relates to formalin-injected mice. Put plainly: Formalin-induced paw edema. Format: in vivo, mouse. As for the experimental part: Paw edema was measured with a digital caliper (Fisher Scientific, USA) and is expressed as the difference (A paw thickness, mm) between ipsilateral and contralateral paws.
Where [9] appears, read: pretreatment, ARN16186 10 mg-kg^−1 IP, ARN19702 30 mg-kg^−1 IP, wild-type mice, 1% formalin.

As to `CCS(=O)(=O)c1ccccc1C(=O)N1CCN(c2nc3ccc(F)cc3s2)C[C@@H]1C` [ARN19702], the “nocifensive response to formalin” value with formalin-injected mice [1] was “prevents”. The body-weight gain result in [2] is “normalizing”. For the same molecule, the “protection from CPLS consolidation” value is “no such effect” in the series on formalin-injected mice [3] (ARN19702 30 mg-kg^−1 IP given on PFD1 or PFD5 to PFD9), “partially effective” with formalin-injected mice [3] (ARN19702 30 mg-kg^−1 IP given on PFD2) and “full protection” in the series with formalin-injected mice [3] (ARN19702 30 mg-kg^−1 IP given once on PFD3 or PFD4). For the same molecule, the “sex dependence of the protective effects (contralateral hyperalgesia in female mice)” value with formalin-injected mice [3] (ARN19702 30 mg-kg^−1 IP once daily PFD1 to PFD3) is “not sex-dependent”. The CPLS consolidation entry with formalin-injected mice [3] (ARN19702 30 mg-kg^−1 IP once daily for 3 consecutive days starting 24 h after formalin, male mice) is listed as “effectively halted”. In addition, the “evoked hypersensitivity (sensory responses)” value with formalin-injected mice [3] (ARN19702 30 mg-kg^−1 IP once daily for 3 days starting 24 h after formalin, male mice) is “normalizing”. Besides, the “pain behaviors (acute effect)” value with formalin-injected mice [3] (ARN19702 30 mg-kg^−1 IP, at all time points PFD1 to PFD9) was “temporarily attenuated”. The “transition to CPLS in PPAR-α-null mice” value in the series on formalin-injected mice [3] (ARN19702 30 mg-kg^−1 IP, Ppara^−/− mice, PFD14) was “unaffected”. In the series on formalin-injected mice [3] (post-injury intrathecal infusion, 30 ng, 5 μL, at PFD2 and PFD4, assessed PFD14), the “persistent hypersensitivity (CPLS) elicited by formalin” value is recorded as “stopped”. In the series with formalin-injected mice [3] (pretreatment of wild-type mice, ARN19702 30 mg-kg^−1 IP, ARN16186 10 mg-kg^−1 IP), the “NAAA-null phenotype (weakened nocifensive response, no inflammation or persistent hypersensitivity after formalin)” value is “recapitulated”. Besides, the “persistent contralateral hyperalgesia (PFD14)” value with formalin-injected mice [3] (setting [9]) is “prevents”. Besides, the “transcriptional and metabolic changes in L4-L6 spinal cord on the following day” value in series [4] is given as “prevented the appearance”. Moreover, in the series on formalin-injected mice [5], the “CPLS-associated changes in spinal and forebrain DTI measures” value is recorded as “reversing”. Besides, in the series on naïve animals, the baseline nociceptive thresholds result is recorded as “Neither compound affected”. The memory deficits entry with formalin-injected mice [6] is on record as “normalizing”. The “nociceptive behavior evoked by formalin or CCI” value in series [7] was “suppresses”. In addition, the “paw edema (PFD14)” value with formalin-injected mice [8] (setting [9]) is “prevents”. The paw edema result in the series with formalin-injected mice [8] (three-day ARN19702 regimen (30 mg-kg^−1 IP) after formalin, PFD14) is “no detectable influence”.
